Earlier results on one molecule are cited in patent US20120121653A1, “Novel mometasone compositions and methods of making and using the same” (Elan Pharma International Limited, priority 2005, published 2012).

Read-outs that look alike come from different tables or passages of the source.

Experiment in data set [1]: not given
This is another data set of the same source.

For the molecule `C[C@@H]1C[C@H]2[C@@H]3CCC4=CC(=O)C=C[C@]4(C)[C@@]3(Cl)[C@@H](O)C[C@]2(C)[C@@]1(OC(=O)c1ccco1)C(=O)CCl` [Mometasone furoate monohydrate, 9,21-Dichloro-11, β,17-di-hydroxy-16^α-methylpregna-1,4-diene-3 ,20-done 17-(2 furoate)], the solubility entry (in acetone) is given as “soluble”; the solubility result (in chloroform) is “soluble”; the solubility result (in ethanol) is “slightly soluble”; the solubility result (in isopropanol) is on record as “slightly soluble”; the solubility entry (in methanol) was “slightly soluble”; the solubility entry (in tetrahydrofuran) is on record as “freely soluble”. Besides, under “in water”, the solubility entry is on record as “practically insoluble”. The “partition coefficient between octanol and water” value in data set [1] is “greater than 5000”.
